{"source": "BindingDB's records for doi:10.1021/jm1005989", "about": "(Pfizer, 2010)", "molecular_target": "Beta-2 adrenergic receptor (Homo sapiens, UniProt P07550)", "sequence (P07550 whole entry)": "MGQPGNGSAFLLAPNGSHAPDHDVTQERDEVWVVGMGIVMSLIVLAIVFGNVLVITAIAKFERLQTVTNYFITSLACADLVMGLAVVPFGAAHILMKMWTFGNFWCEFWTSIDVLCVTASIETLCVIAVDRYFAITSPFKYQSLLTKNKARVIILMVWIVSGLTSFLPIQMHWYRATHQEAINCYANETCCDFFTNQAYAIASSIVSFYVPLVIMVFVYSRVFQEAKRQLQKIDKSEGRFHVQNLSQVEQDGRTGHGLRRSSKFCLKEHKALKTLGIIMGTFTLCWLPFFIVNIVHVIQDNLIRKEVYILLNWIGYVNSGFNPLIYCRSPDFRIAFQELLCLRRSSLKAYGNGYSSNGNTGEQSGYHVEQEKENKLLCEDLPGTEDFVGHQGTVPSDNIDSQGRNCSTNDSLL", "test": "Agonist activity at human recombinant beta2 adrenergic receptor expressed in CHO cells assessed as elevation in cAMP level after 1 hr by flashplate method"}
{"smiles": "CC(C)(Cc1cccc(CC(=O)NCc2ccc(Cl)c(Cl)c2)c1)NC[C@H](O)c1ccc(O)c(NS(C)(=O)=O)c1", "note": "[(R)-N-(3,4-dichlorobenzyl)-2-(3-(2-(2-hydroxy-2-(4-hydroxy-3-(methylsulfonamido)phenyl)ethylamino)-2-methylpropyl)phenyl)acetamide]", "values": [{"measurement": "EC50", "value": 70, "unit": "pM"}]}
